Results as given in patent publication US20020009421A1, “Therapy following skin injury from exposure to ultraviolet radiation” (priority 2000, published 2002).

Legend:
sunburn = assay: In Vivo Evaluation: sunburn in a human subject after about six hours of intense sunlight, oral self-administration; settings: for relief of pain: oral self-administration, adult with severe sunburn, celecoxib 100 mg
Description: 1. Subject: An adult, person of light complexion whose skin had not been substantially exposed to strong sunlight for approximately six months.
2. Protocol: The subject was exposed to intense sunlight at a swimming pool for approximately six hours.
3. […] At that time the subject self-administered an oral dose of acetaminophen (Extra Strength Tylenol®) to relieve the pain. […] Later in the evening the subject was unable to sleep due to the continued pain. At that time the subject self-administered a 100 mg dose of Celebrex® (celecoxib). […] Approximately twelve hours later the subject took a second dose of celecoxib to relieve the onset of discomfort due to the sunburn.

UV-B mediated injury = settings: cited from earlier work
[1] = system: UV radiation-induced tumor formation and UV-B mediated inflammatory response; settings: oral administration, cited from earlier work

SMILES: Cc1ccc(-c2cc(C(F)(F)F)nn2-c2ccc(S(N)(=O)=O)cc2)cc1 [celecoxib, 4-[5-(4-methylphenyl)-3-(trifluoromethyl)-1H-pyrazol-1-yl]benzenesulfonamide]
- time to almost complete relief of pain following administration (sunburn; 100 mg oral dose of Celebrex, adult with sunburn): ≤ 1 h
- relief of pain (sunburn): almost complete relief of pain
- healing of the burn (blistering, peeling of surface skin) (sunburn; two oral doses of celecoxib about twelve hours apart, subject's report): rapid healing of the burn with no blistering or peeling of surface skin
- cutaneous inflammatory response after exposure of skin to UV-B radiation (UV-B mediated injury; oral administration): failed to block the cutaneous inflammatory response
- parameters of UV-B mediated injury (UV-B mediated injury; topical application): reduce many of the parameters of UV-B mediated injury
- tumor formation ([1]; animals chronically exposed to UV radiation): reduced tumor formation
- acute UV-B mediated inflammatory response involving increased cell proliferation and edema ([1]; following acute or chronic exposure to UV radiation): failed to inhibit the acute UV-B mediated inflammatory response
- UV-B induced prostaglandin synthesis [1]: block the UV-B induced prostaglandin synthesis

SMILES: CC(=O)Nc1ccc(O)cc1 [acetaminophen]
- relief of pain (sunburn): no relief in pain
